In this data set the test system is polarized Th17 cells. In words: IL-17 production by naïve CD4+ T cells cultured under Th17-polarizing conditions. In kind it is cell-based. The following applies: PIA at 15, 30 and 45 μM. How it is done: Naïve CD4^+ T cells were isolated from the spleen using MACS® CD4^+CD62L^+ isolation kit (Miltenyi Biotec). The isolated CD4^+CD62L^+ T cells were cultured in the presence of anti-CD3/CD28 dynabeads (Invitrogen), IL-6 (30 ng/mL; R&D Systems), transforming growth factor TGF-β1 (4 ng/mL; R&D Systems), anti-interferon IFN-γ and anti-IL-4 (10 μg/mL; Biolegend) for 72 h.
The intensities of Arid5a immunoblot bands and IL-17 concentrations are presented as mean±SD from at least three independent experiments produced similar results. The statistical significance between mean values was tested by one-way ANOVA. *p<0.05 was considered significant.
Arid5a plays an important role in the production of IL-17, a cytokine that plays pivotal roles in chronic inflammation and autoimmune diseases such as MS and rheumatoid arthritis, and cancer. Therefore, the effects of PIA (SEQ ID NO: 2) on IL-17 production by naïve CD4^+ cells cultured under Th17-polarizing conditions were examined. The CD4^+CD62L^+ T cells were cultured in the presence of anti-CD3/CD28 dynabeads, IL-6, TGF-β1, anti-IFN-γ and anti-IL-4.

Where no end group is shown, it is not given here.

For ACTVGGYE [PIA, ACTVGGYE], the cell viability entry is given as “no significant effects on cell viability”.

Source of the values: US11773137B2, “Arid5a peptide inhibitors” (KING FAISAL UNIVERSITY, priority 2019, dated 2023).
